The supplement of paper PMC13207355
± gives the standard deviation of the averaged measurements.

What was measured:
Details in all cases: exposure time: 72 h
E13 [1] = patient-derived glioblastoma stem cells of classical subtype; experiment: surviving fraction (nuclei count normalised to DMSO); higher = more cells surviving (less toxic)
E21 [2] = patient-derived glioblastoma stem cells of mesenchymal subtype; experiment: as above
E28 [3] = patient-derived glioblastoma stem cells of classical subtype; experiment: as above
E34 [4] = patient-derived glioblastoma stem cells of proneural subtype; experiment: as above
E57 [5] = patient-derived glioblastoma stem cells of mesenchymal subtype; experiment: as above
FT3469 [6] = normal neural stem cell line; experiment: as above
E13 [7] = experiment: phenotypic distance (Euclidean, principal components) from DMSO controls (arbitrary units); higher = stronger morphological change
E21 [8] = experiment: as above
E28 [9] = experiment: as above
E34 [10] = experiment: as above
E57 [11] = experiment: as above
FT3469 [12] = experiment: as above
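Throughout, for phenotypic distance (Euclidean, principal components) from DMSO controls: cell Painting imaging in 384-well plates, CellProfiler features reduced to at least 20 principal components, Euclidean distance versus same-plate DMSO vehicle wells (0.1% v/v), median over six images per well.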
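Throughout, for surviving fraction (nuclei count normalised to DMSO): nuclei counted by high-content imaging of Hoechst-stained cells in laminin-coated 384-well plates, relative to 0.1% DMSO vehicle wells, with staurosporine as cell-death control.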

Cc1ccc(NC(=O)c2ccc3c(c2)OCCO3)cc1NC(=O)c1ccc2nc(OCCN3CCCC3)ccc2c1
Details	phenotypic distance	surviving fraction
E13 [1], 4.1 nM	–	0.567
E13 [1], 4.11523 nM	–	0.579
E13 [1], 12.3 nM	–	0.474
E13 [1], 12.34567901 nM	–	0.507
E13 [1], 37 nM	–	0.421
E13 [1], 37.037 nM	–	0.402
E13 [1], 111.1 nM	–	0.347
E13 [1], 111.1111111 nM	–	0.456
E13 [1], 333.3 nM	–	0.332
E13 [1], 333.333 nM	–	0.347
E13 [1], 1000 nM	–	0.2728 ± 0.0027
E13 [1], 3000 nM	–	0.245 ± 0.025
E13 [7], 4.1 nM	2.33	–
E13 [7], 4.11523 nM	2.3	–
E13 [7], 12.3 nM	2.75	–
E13 [7], 12.34567901 nM	2.91	–
E13 [7], 37 nM	2.97	–
E13 [7], 37.037 nM	2.96	–
E13 [7], 111.1 nM	2.97	–
E13 [7], 111.1111111 nM	2.53	–
E13 [7], 333.3 nM	3.19	–
E13 [7], 333.333 nM	3.19	–
E13 [7], 1000 nM	4.14 ± 0.19	–
E13 [7], 3000 nM	4.93 ± 0.2	–
E21 [2], 4.1 nM	–	0.572
E21 [2], 4.11523 nM	–	0.511
E21 [2], 12.3 nM	–	0.385
E21 [2], 12.34567901 nM	–	0.434
E21 [2], 37 nM	–	0.402
E21 [2], 37.037 nM	–	0.406
E21 [2], 111.1 nM	–	0.276
E21 [2], 111.1111111 nM	–	0.306
E21 [2], 333.3 nM	–	0.28
E21 [2], 333.333 nM	–	0.23
E21 [2], 1000 nM	–	0.235 ± 0.024
E21 [2], 3000 nM	–	0.159 ± 0.015
E21 [8], 4.1 nM	1.96	–
E21 [8], 4.11523 nM	2.3	–
E21 [8], 12.3 nM	3.3	–
E21 [8], 12.34567901 nM	2.79	–
E21 [8], 37 nM	4.37	–
E21 [8], 37.037 nM	3.31	–
E21 [8], 111.1 nM	5.55	–
E21 [8], 111.1111111 nM	4.4	–
E21 [8], 333.3 nM	4.63	–
E21 [8], 333.333 nM	5.16	–
E21 [8], 1000 nM	4.03 ± 0.4	–
E21 [8], 3000 nM	3.92 ± 0.23	–
E28 [3], 4.1 nM	–	0.547
E28 [3], 4.11523 nM	–	0.493
E28 [3], 12.3 nM	–	0.385
E28 [3], 12.34567901 nM	–	0.432
E28 [3], 37 nM	–	0.366
E28 [3], 37.037 nM	–	0.346
E28 [3], 111.1 nM	–	0.309
E28 [3], 111.1111111 nM	–	0.32
E28 [3], 333.3 nM	–	0.309
E28 [3], 333.333 nM	–	0.242
E28 [3], 1000 nM	–	0.317 ± 0.089
E28 [3], 3000 nM	–	0.285 ± 0.066
E28 [9], 4.1 nM	2.24	–
E28 [9], 4.11523 nM	2.33	–
E28 [9], 12.3 nM	3.06	–
E28 [9], 12.34567901 nM	2.58	–
E28 [9], 37 nM	3.23	–
E28 [9], 37.037 nM	2.95	–
E28 [9], 111.1 nM	3.14	–
E28 [9], 111.1111111 nM	2.92	–
E28 [9], 333.3 nM	2.79	–
E28 [9], 333.333 nM	3.14	–
E28 [9], 1000 nM	2.41 ± 0.13	–
E28 [9], 3000 nM	2.42 ± 0.22	–
E34 [4], 4.1 nM	–	0.581
E34 [4], 4.11523 nM	–	0.432
E34 [4], 12.3 nM	–	0.436
E34 [4], 12.34567901 nM	–	0.574
E34 [4], 37 nM	–	0.548
E34 [4], 37.037 nM	–	0.385
E34 [4], 111.1 nM	–	0.505
E34 [4], 111.1111111 nM	–	0.555
E34 [4], 333.3 nM	–	0.486
E34 [4], 333.333 nM	–	0.376
E34 [4], 1000 nM	–	0.494 ± 0.054
E34 [4], 3000 nM	–	0.464 ± 0.0053
E34 [10], 4.1 nM	1.52	–
E34 [10], 4.11523 nM	2.43	–
E34 [10], 12.3 nM	2.63	–
E34 [10], 12.34567901 nM	1.82	–
E34 [10], 37 nM	2.02	–
E34 [10], 37.037 nM	2.96	–
E34 [10], 111.1 nM	2.75	–
E34 [10], 111.1111111 nM	2.28	–
E34 [10], 333.3 nM	3	–
E34 [10], 333.333 nM	3.8	–
E34 [10], 1000 nM	2.97 ± 0.25	–
E34 [10], 3000 nM	3.82 ± 0.7	–
E57 [5], 4.1 nM	–	0.335
E57 [5], 4.11523 nM	–	0.321
E57 [5], 12.3 nM	–	0.23
E57 [5], 12.34567901 nM	–	0.214
E57 [5], 37 nM	–	0.296
E57 [5], 37.037 nM	–	0.268
E57 [5], 111.1 nM	–	0.215
E57 [5], 111.1111111 nM	–	0.277
E57 [5], 333.3 nM	–	0.209
E57 [5], 333.333 nM	–	0.246
E57 [5], 1000 nM	–	0.199 ± 0.018
E57 [5], 3000 nM	–	0.17 ± 0.0023
E57 [11], 4.1 nM	2.44	–
E57 [11], 4.11523 nM	2.93	–
E57 [11], 12.3 nM	3.38	–
E57 [11], 12.34567901 nM	3.54	–
E57 [11], 37 nM	3.19	–
E57 [11], 37.037 nM	3.43	–
E57 [11], 111.1 nM	3.22	–
E57 [11], 111.1111111 nM	3.19	–
E57 [11], 333.3 nM	3.67	–
E57 [11], 333.333 nM	3.36	–
E57 [11], 1000 nM	3.79 ± 0.25	–
E57 [11], 3000 nM	3.67 ± 0.63	–
FT3469 [6], 4.1 nM	–	0.613
FT3469 [6], 4.11523 nM	–	0.62
FT3469 [6], 12.3 nM	–	0.72
FT3469 [6], 12.34567901 nM	–	0.67
FT3469 [6], 37 nM	–	0.636
FT3469 [6], 37.037 nM	–	0.618
FT3469 [6], 111.1 nM	–	0.608
FT3469 [6], 111.1111111 nM	–	0.667
FT3469 [6], 333.3 nM	–	0.674
FT3469 [6], 333.333 nM	–	0.615
FT3469 [6], 1000 nM	–	0.602 ± 0.094
FT3469 [6], 3000 nM	–	0.484 ± 0.023
FT3469 [12], 4.1 nM	2.71	–
FT3469 [12], 4.11523 nM	2.72	–
FT3469 [12], 12.3 nM	3.04	–
FT3469 [12], 12.34567901 nM	2.97	–
FT3469 [12], 37 nM	3.5	–
FT3469 [12], 37.037 nM	3.59	–
FT3469 [12], 111.1 nM	3.07	–
FT3469 [12], 111.1111111 nM	3.24	–
FT3469 [12], 333.3 nM	4.42	–
FT3469 [12], 333.333 nM	3.16	–
FT3469 [12], 1000 nM	2.96 ± 0.38	–
FT3469 [12], 3000 nM	3.35 ± 0.2	–
